Laboratory results from patent US20210196714A1, “COMPOSITIONS AND METHODS FOR TREATING DISORDERS CHARACTERIZED WITH ABERRANT RAS/MAPK SIGNALING” (Duke University, priority 2018, published 2021).

How the values were obtained:
[1] = system: zebrafish kmt2d morphants; assay: Rescue of convergent-extension (CE) phenotype in kmt2d morphants; type: in vivo
morphant KS embryos = settings: Bogershausen et al. 2015; cited from earlier work

| Compound | amelioration of CE defects over serial dilutions ([1]; 1 nM to 1 μM, 8-10 somite stage) | CE defects at 50 nM and 100 nM doses ([1]; dose response, 50 and 100 nM) | rescue of CE-driven phenotypes (morphant KS embryos) |
| --- | --- | --- | --- |
| CC(C)(C)c1nc(-c2cccc(NS(=O)(=O)c3c(F)cccc3F)c2F)c(-c2ccnc(N)n2)s1 [Dabrafenib, reference compound] | did not result in significant amelioration | marginal improvements | – |
| O=C(NOCC1CC1)c1cc(Br)c(F)c(F)c1Nc1ccc(I)cc1Cl [PD184161] | – | – | phenocopy this rescue |
